Assay results published in patent US10149876B2, “Tripterygium wilfordii extracts to overcome chemotherapy resistance” (WESTERN UNIVERSITY OF HEALTH SCIENCES, priority 2012, dated 2018).
Where “and” joins values, the source holds several entries; their conditions need not be identical. Equal entries are not always repeated. Where two headings read alike, the source gives them in different places.

Columns and labels:
PC3-TxR cells = assay: SRB cell viability assay, docetaxel-resistant PC3-TxR cells; conditions: Homo sapiens
Method: The CE is expressed as: CE=IC50D/IC50E+D. IC50D is the IC50 of the chemotherapeutic drug against which an test extract (or other compound suspected of having a CE) is evaluated. IC50E+D is the IC50 of the combination of the test extract and chemotherapeutic drug. The CE of a test extract or compound can vary depending on the type of cell and the specific chemotherapeutic or class or combination of therapeutics that are being evaluated.
The variance between those concentrations can be quantitated by calculating the Chemosensitizing Utility Index (CUI) value for a test extract or compound. The CUI is expressed as: CUI=CE×(IC50E/ConE). […] ConE is the concentration of an extract or compound that is required to produce desirable CE.
CE and CUI values were obtained individually for the aqueous, ethanol, and chloroform extracts that are described above. […] In the Examples, the ethanol, is referred to as Lei Gong Teng extract (LGT-E).
PC3-TxR cells were plated into sterile, F-bottom Cellstar® 96 well cell culture plates with lids (Cat #655180, Purchased from Greiner Bio-one, Monroe, N.C.) by placing into each well, 100 μl of medium containing 3000 cells in RPMI 1640 supplemented with 10% fetal bovine serum (Thermo Scientific, Logan, Utah) and a solution of penicillin (100 U/ml) and streptomycin (100 μg/ml) (Life Technologies Grand Island, N.Y.). The cells were at passage 52 at the time of plating. Triplicate wells were assigned to each experimental condition tested, and a 24 hour recovery period for the cells following the seeding of the wells was allowed. During the recovery period, the cells were incubated at 37° C. and 5% CO2.
The LGT-E was prepared by adding an appropriate amount of LGT-E powder to DMSO to form a 500 mg/ml stock solution. The stock solution was alternately vortexed and sonicated until the LGT-E powder went into solution. The stock solution was diluted in RPMI 1640 medium (Mediatech, Manassas, Va., or Life Technologies Grand Island, NY) to reach the desired concentrations of LGT-E (e.g., 12, 25, or 60 μg/ml).
Pretreatment of the cells with LGT-E was carried out by aspirating the media from the wells, followed by adding 50 μl of LGT-E solution containing concentrations of either 12 or 25 μg/ml of LGT-E solution and incubation of the cells for two hours under conditions of 37° C. and 5% CO2.
Media was aspirated from each well, and replaced with a 10% solution of cold trichloroacetic acid (TCA) (Cat #: T6399, purchased from Sigma-Aldrich), and incubated for one hour at 4° C. After the TCA incubation, the TCA solution was aspirated, and the cells were washed five times with tap water. After removing the last wash, the plates were left with lids off at room temperature until the surfaces were dry, which took one to two hours. Then 50 μl of a 0.4% solution of sul-forhodamine B (SRB) sodium salt (Cat #: S9012, purchased from Sigma-Aldrich) was added to each well and the plates were incubated at room temperature for 20 to 30 minutes. Afterwards, the wells were washed five times with a 1% acetic acid solution in 10 mM TRIS base (Cat#: 161-0719, purchased from Bio-Rad Laboratories, Hercules, Calif.). The plates were subsequently left to dry for several hours or overnight. SRB that remained in the dried wells was solubilized by adding 100 μl of SRB solubilization solution (10 mM TRIS base) to each well, and placing the plates either on a gently-moving shaker or letting the plates remain stationary at room temperature until the SRB dissolves, which takes about five to ten minutes. The amount of SRB in each well, which correlated directly to the number of living cells at fixation, was determined spectrophotometrically at an absorbance of 565 nm by a microplate reader.

PC3 cells = assay: SRB cell viability assay, docetaxel-sensitive PC3 cells; type: cell-based; conditions: Homo sapiens, PC-3; read-out: IC50 of drug when cells treated with drug only
Method: The chemotherapeutic drugs that were tested for chemosensitization in combination with LTG-E were docetaxel, daunorubicin, Herceptin®, and lapatinib. […] Table 17 also contains the serially-diluted concentrations of drugs that each cell line was tested against.

CC(=O)O[C@@]12CO[C@@H]1C[C@H](O)[C@@]1(C)C(=O)[C@H](O)C3=C(C)[C@@H](OC(=O)[C@H](O)[C@@H](NC(=O)OC(C)(C)C)c4ccccc4)C[C@@](O)([C@@H](OC(=O)c4ccccc4)[C@H]21)C3(C)C [Docetaxel, docetaxel]
viability at 1 pM (PC3-TxR cells; read-out: % viable, PC3-TxR, LGT-E 12 μg/ml pre-treatment, docetaxel 0.001 nM 72 h): 100% | viability at 0.0001 µM (PC3-TxR cells; read-out: % viable, PC3-TxR, LGT-E 12 μg/ml pre-treatment, docetaxel 0.1 nM 72 h): 105% | viability at 0.000333 µM (PC3-TxR cells; read-out: % viable, PC3-TxR, LGT-E 12 μg/ml pre-treatment, docetaxel 0.333 nM 72 h): 103% | viability at 0.001 µM (PC3-TxR cells; read-out: % viable, PC3-TxR, LGT-E 12 μg/ml pre-treatment, docetaxel 1 nM 72 h): 97.8% | viability at 0.00333 µM (PC3-TxR cells; read-out: % viable, PC3-TxR, LGT-E 12 μg/ml pre-treatment, docetaxel 3.33 nM 72 h): 62.4% | viability at 0.01 µM (PC3-TxR cells; read-out: % viable, PC3-TxR, LGT-E 12 μg/ml pre-treatment, docetaxel 10 nM 72 h): 21.2% | viability at 0.0333 µM (PC3-TxR cells; read-out: % viable, PC3-TxR, LGT-E 12 μg/ml pre-treatment, docetaxel 33.3 nM 72 h): 7% | viability at 0.1 µM (PC3-TxR cells; read-out: % viable, PC3-TxR, LGT-E 12 μg/ml pre-treatment, docetaxel 100 nM 72 h): 4.1% | viability at 1 pM (PC3-TxR cells; read-out: % viable, PC3-TxR, LGT-E 25 μg/ml pre-treatment, docetaxel 0.001 nM 72 h): 100% | viability at 0.0001 µM (PC3-TxR cells; read-out: % viable, PC3-TxR, LGT-E 25 μg/ml pre-treatment, docetaxel 0.1 nM 72 h): 99.9% | viability at 0.000333 µM (PC3-TxR cells; read-out: % viable, PC3-TxR, LGT-E 25 μg/ml pre-treatment, docetaxel 0.333 nM 72 h): 99.1% | viability at 0.001 µM (PC3-TxR cells; read-out: % viable, PC3-TxR, LGT-E 25 μg/ml pre-treatment, docetaxel 1 nM 72 h): 82.5% | viability at 0.00333 µM (PC3-TxR cells; read-out: % viable, PC3-TxR, LGT-E 25 μg/ml pre-treatment, docetaxel 3.33 nM 72 h): 34.6% | viability at 0.01 µM (PC3-TxR cells; read-out: % viable, PC3-TxR, LGT-E 25 μg/ml pre-treatment, docetaxel 10 nM 72 h): 9.4% | viability at 0.0333 µM (PC3-TxR cells; read-out: % viable, PC3-TxR, LGT-E 25 μg/ml pre-treatment, docetaxel 33.3 nM 72 h): 4.9% | viability at 0.1 µM (PC3-TxR cells; read-out: % viable, PC3-TxR, LGT-E 25 μg/ml pre-treatment, docetaxel 100 nM 72 h): 4.7% | viability at 1 pM (PC3-TxR cells; read-out: % viable, PC3-TxR, no LGT-E pre-treatment (Table 2), docetaxel 0.001 nM 72 h): 100% | viability at 0.0001 µM (PC3-TxR cells; read-out: % viable, PC3-TxR, no LGT-E pre-treatment (Table 2), docetaxel 0.1 nM 72 h): 98.5% | viability at 0.000333 µM (PC3-TxR cells; read-out: % viable, PC3-TxR, no LGT-E pre-treatment (Table 2), docetaxel 0.333 nM 72 h): 100% | viability at 0.001 µM (PC3-TxR cells; read-out: % viable, PC3-TxR, no LGT-E pre-treatment (Table 2), docetaxel 1 nM 72 h): 105% | viability at 0.01 µM (PC3-TxR cells; read-out: % viable, PC3-TxR, no LGT-E pre-treatment (Table 2), docetaxel 10 nM 72 h): 77% | viability at 0.0333 µM (PC3-TxR cells; read-out: % viable, PC3-TxR, no LGT-E pre-treatment (Table 2), docetaxel 33.3 nM 72 h): 29.7% | viability at 0.1 µM (PC3-TxR cells; read-out: % viable, PC3-TxR, no LGT-E pre-treatment (Table 2), docetaxel 100 nM 72 h): 11.3% | viability at 1 pM (PC3-TxR cells; read-out: % viable, PC3-TxR, no LGT-E pre-treatment (Table 4), docetaxel 0.001 nM 72 h): 100% | viability at 0.0001 µM (PC3-TxR cells; read-out: % viable, PC3-TxR, no LGT-E pre-treatment (Table 4), docetaxel 0.1 nM 72 h): 98.7% | viability at 0.000333 µM (PC3-TxR cells; read-out: % viable, PC3-TxR, no LGT-E pre-treatment (Table 4), docetaxel 0.333 nM 72 h): 99.9% | viability at 0.001 µM (PC3-TxR cells; read-out: % viable, PC3-TxR, no LGT-E pre-treatment (Table 4), docetaxel 1 nM 72 h): 99.2% | viability at 0.00333 µM (PC3-TxR cells; read-out: % viable, PC3-TxR, no LGT-E pre-treatment (Table 4), docetaxel 3.33 nM 72 h): 98.5% | viability at 0.01 µM (PC3-TxR cells; read-out: % viable, PC3-TxR, no LGT-E pre-treatment (Table 4), docetaxel 10 nM 72 h): 76.7% | viability at 0.0333 µM (PC3-TxR cells; read-out: % viable, PC3-TxR, no LGT-E pre-treatment (Table 4), docetaxel 33.3 nM 72 h): 32.9% | viability at 0.1 µM (PC3-TxR cells; read-out: % viable, PC3-TxR, no LGT-E pre-treatment (Table 4), docetaxel 100 nM 72 h): 13.4% | viability at 1 pM (PC3-TxR cells; read-out: % viable, PC3-TxR, no LGT-E pre-treatment (Table 11, Example 4), docetaxel 0.001 nM 72 h): 100% | viability at 0.0001 µM (PC3-TxR cells; read-out: % viable, PC3-TxR, no LGT-E pre-treatment (Table 11, Example 4), docetaxel 0.1 nM 72 h): 98.7% | viability at 0.000333 µM (PC3-TxR cells; read-out: % viable, PC3-TxR, no LGT-E pre-treatment (Table 11, Example 4), docetaxel 0.333 nM 72 h): 99.9% | viability at 0.001 µM (PC3-TxR cells; read-out: % viable, PC3-TxR, no LGT-E pre-treatment (Table 11, Example 4), docetaxel 1 nM 72 h): 99.2% | viability at 0.00333 µM (PC3-TxR cells; read-out: % viable, PC3-TxR, no LGT-E pre-treatment (Table 11, Example 4), docetaxel 3.33 nM 72 h): 98.5% | viability at 0.01 µM (PC3-TxR cells; read-out: % viable, PC3-TxR, no LGT-E pre-treatment (Table 11, Example 4), docetaxel 10 nM 72 h): 76.7% | viability at 0.0333 µM (PC3-TxR cells; read-out: % viable, PC3-TxR, no LGT-E pre-treatment (Table 11, Example 4), docetaxel 33.3 nM 72 h): 32.9% | viability at 0.1 µM (PC3-TxR cells; read-out: % viable, PC3-TxR, no LGT-E pre-treatment (Table 11, Example 4), docetaxel 100 nM 72 h): 13.4% | IC50 (PC3-TxR cells; read-out: IC50 of drug when cells pre-treated with Chemosensitizing Agent before drug treatment, docetaxel, LGT-E 25 μg/ml pre-treatment): 2.19 nM and 0.00177 µg/mL | IC50 (PC3-TxR cells; read-out: IC50 of drug when cells treated with drug only, docetaxel, line of LGT-E 25 μg/ml): 18.3 nM and 0.0148 µg/mL | IC50 (PC3 cells): 1.8 nM and 0.00145 µg/mL
